Molecules are shown by their SMILES.

In experiment [1] the test system is ACCase inhibitor resistant rice seeds (ML0831265-01493 (ATCC deposit PTA-12933, mutation G2096S)). The experiment in a line: Safener seed treatment with propaquizafop or quizalofop: regrowth of resistant rice. Format: in vivo. The protocol: (§1) Seeds of a proprietary ACCase resistant rice variety, i.e. RTA1, was used. RTA1, ML0831265-01493 (ATCC deposit PTA-12933, mutation G2096S) variety rice seeds were supplied by RiceTec. RTA1 rice cultivar contains a single mutation in the ACCase gene that confer ACCase resistance. The mutation makes the enzyme insensitive to quizalofop.
(§2) Mutant rice seeds were planted in commercial greenhouse soil mix in 10×10×10 cm plastic pots. 250 mL of soil was put into each pot, then the seeds were placed on top of the soil and the seeds were covered with 100-150 mL of soil. Approximately 8-10 seeds were planted per pot. The pots were then watered with 100 mL of a mixture of Miracle Grow and Fertiplus (iron supplement). The pots were placed in the greenhouse (38° C./20° C. day/night, 14 h photoperiod with supplemental light). The average light intensity in the greenhouse was 150 μM/m^2/sec.
Plants were grown until 10 days after planting and then the pots were transferred to trays and the plants were grown under water. :Plants were treated when they reached the 3-5 leaf stage. […]
(§3) Four days after treatment, the tops of the plants were cut off so that approximately 2.5 cm of plant from the top of the soil remain. The plants were allowed to regrow for 3 days at which time the amount of regrowth was weighed by measuring the amount of fresh weight of tissue that regrew. Comparing the weight of regrowth of shoots after cutting indicates the level of phytotoxicity the herbicide had on the mutant rice plant and the increased level of resistance of the mutant rice to the herbicide when the herbicide was applied in combination with the safener.
The safeners were also applied in various w/w ratios of the ACCase inhibiting herbicides to the rice seeds.

Experiment [2] deals with mutant rice (ML0831265-01493, ATCC deposit PTA-12933, mutation G2096S). As to the kind of experiment: Tank mixes of safeners with propaquizafop or quizalofop: regrowth of mutant rice. The format is in vivo. The protocol:
as §1, §2
Plants were grown until 10 days after planting and then the pots were transferred to trays and the plants were grown under water. :Plants were treated when they reached the 3-5 leaf stage.
Safeners were tank mixed with the herbicide in the spray bottle.
as §3
The safeners were applied in various w/w ratios with the ACCase inhibiting herbicides to the rice plant.

Setting [3] is: propaquizafop, safener seed treatment 0.5 g/kg of seed.
[4] abbreviates: propaquizafop, safener seed treatment 1 g/kg of seed.
Setting [5] is: propaquizafop, safener seed treatment 2 g/kg of seed.
[6] abbreviates: quizalofop, safener seed treatment 0.5 g/kg of seed.
The mark [7] stands for this setting: quizalofop, safener seed treatment 1 g/kg of seed.
The mark [8] stands for this setting: quizalofop, safener seed treatment 2 g/kg of seed.
The mark [9] stands for this setting: tank mix with propaquizafop 50 g/ha, safener 12.5 g/ha.
The mark [10] stands for this setting: tank mix with propaquizafop 50 g/ha, safener 25 g/ha.
Setting [11] is: tank mix with propaquizafop 50 g/ha, safener 50 g/ha.
[12] abbreviates: tank mix with propaquizafop 50 g/ha, safener 100 g/ha.
[13] abbreviates: tank mix with quizalofop 40 g/ha, safener 12.5 g/ha.
Setting [14] is: tank mix with quizalofop 40 g/ha, safener 25 g/ha.
[15] abbreviates: tank mix with quizalofop 40 g/ha, safener 50 g/ha.
Where [16] appears, read: tank mix with quizalofop 40 g/ha, safener 100 g/ha.

Consider `O=C(C(Cl)Cl)N1CCOC12CCCCC2` [AD-67], for which the “Regrowth (fresh weight mg)” value is 173 mg in experiment [1] (setting [3]); 113 mg in experiment [1] (setting [4]); 170 mg in experiment [1] (setting [5]); 233 mg in experiment [1] (setting [6]); 285 mg in experiment [1] (setting [7]); 298 mg in experiment [1] (setting [8]). The “Regrowth (fresh weight mg)” value in experiment [2] (setting [9]) is listed as 68 mg; in experiment [2] (setting [10]), 222 mg; in experiment [2] (setting [11]), 288 mg; in experiment [2] (setting [12]) it was 512 mg; in experiment [2] (setting [13]), 202 mg; in experiment [2] (setting [14]), 292 mg. In addition, the “Regrowth (fresh weight mg)” value is recorded as 348 mg in experiment [2] (setting [15]) and 505 mg in experiment [2] (setting [16]).
As to `CC1COc2ccccc2N1C(=O)C(Cl)Cl` (centres unmarked) [Benzacor, benoxacor], the “Regrowth (fresh weight mg)” value is 37 mg in experiment [1] (setting [3]); 107 mg in experiment [1] (setting [4]); 98 mg in experiment [1] (setting [5]); 90 mg in experiment [1] (setting [6]); 72 mg in experiment [1] (setting [7]); 78 mg in experiment [1] (setting [8]).
Consider `O=C(O)COc1ccc(Cl)c2cccnc12` [Cloquinoce, cloquintocet], for which the “Regrowth (fresh weight mg)” value was determined as 275 mg in experiment [1] (setting [3]); 342 mg in experiment [1] (setting [4]); 358 mg in experiment [1] (setting [5]); 143 mg in experiment [1] (setting [6]); 145 mg in experiment [1] (setting [7]); 273 mg in experiment [1] (setting [8]). Besides, the “Regrowth (fresh weight mg)” value is on record as 42 mg in experiment [2] (setting [9]); 90 mg in experiment [2] (setting [10]); 158 mg in experiment [2] (setting [11]); 355 mg in experiment [2] (setting [12]); 172 mg in experiment [2] (setting [13]); 132 mg in experiment [2] (setting [14]). Moreover, the “Regrowth (fresh weight mg)” value in experiment [2] (setting [15]) came out at 252 mg; in experiment [2] (setting [16]), 398 mg.
`Clc1cc(Cl)nc(-c2ccccc2)n1` [Fenclorim, fenclorim]: the “Regrowth (fresh weight mg)” value in experiment [1] (setting [3]) stood at 137 mg; in experiment [1] (setting [4]), 195 mg; in experiment [1] (setting [5]) it was 283 mg; in experiment [1] (setting [6]), 163 mg; in experiment [1] (setting [7]) it was 167 mg; in experiment [1] (setting [8]), 180 mg. Also, the “Regrowth (fresh weight mg)” value came to 15 mg in experiment [2] (setting [9]); 13 mg in experiment [2] (setting [10]); 15 mg in experiment [2] (setting [11]); 15 mg in experiment [2] (setting [12]); 42 mg in experiment [2] (setting [13]); 52 mg in experiment [2] (setting [14]). Moreover, the figures for the “Regrowth (fresh weight mg)” value in experiment [2] (setting [15]) and in experiment [2] (setting [16]) were 67 mg and 55 mg, respectively.
Take `CC(C)=NOCCOC(=O)[C@@H](C)Oc1ccc(Oc2cnc3cc(Cl)ccc3n2)cc1` [Propaquizafop, (R)-2-[[(1-methylethylidene)amino]oxy]ethyl 2-[4-[(6-chloro-2-quinoxalinyl)oxy]phenoxy]propanoate]: the “Regrowth (fresh weight mg)” value in experiment [1] (propaquizafop, seeds without safener) is 55 mg; in experiment [2] (propaquizafop 50 g/ha, no safener), 25 mg.

The record behind these values is US20210022342A1, “THE USE OF SAFENERS TO IMPROVE RESISTANCE OF RICE CROP TO HERBICIDES” (Adama Agan Ltd., priority 2018, published 2021).
